Some test systems named below: T47D; MDA-MB-231; ACHN; HOP-62; COLO 205; U-251; SK-MEL-28; SK-OV-3; PC-3; KM-20L2; K562; SN12C; SNB-78; NCI-H522; EKVX; DMS-273; HT-29; XF498; DMS-114; UACC-62.
Common to all, as to test: growth of human tumour cells (NCI), 48 h

The source of these data is ChEMBL document CHEMBL1201862, “PubChem BioAssay data set” (2004).

SMILES strings stand for the structures.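 Results reflect a 48-hour exposure of cells in 96-well plates to compound at five concentrations. GI50 = concentration required for 50% inhibition of growth.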 Calls of active or inactive are those of the source. Cut-off read from the data, not from the text of the source: active = GI50 up to about 1.1 µM and inactive = higher.

`COc1c(C=O)c2c(c(OC)c1OC)-c1ccc(OC)c(=O)cc1[C@@H](NC(C)=O)CC2`: the GI50 in the assay with T47D is > 100 µM (inactive); with MDA-MB-231, 0.352 µM (active); in the assay with ACHN it was 1.17 µM (inactive); in the assay on HOP-62 it was 0.36 µM (active); with COLO 205 it was 0.0239 µM (active); with U-251, 0.0367 µM (active). In addition, the GI50 is 4.08 µM (inactive) with SK-MEL-28; 1.2 µM (inactive) with SK-OV-3; 0.0375 µM (active) in the assay with PC-3; 0.0364 µM (active) in the assay on KM-20L2; < 0.0126 µM (active) in the assay on K562; 0.0824 µM (active) in the assay with SN12C. Also, the GI50 with SNB-78 is < 0.0147 µM (active); with NCI-H522, 0.0123 µM (active); with EKVX it was 47.9 µM (inactive); with DMS-273, 0.029 µM (active); in the assay with HT-29 it was 0.0255 µM (active); in the assay with XF498, 0.0773 µM (active). Moreover, the GI50 in the assay with DMS-114 is < 0.0146 µM (active); with UACC-62, 0.0412 µM (active).
As for `Nc1ccc(C(=O)N/C(=C\c2ccc3c(c2)OCO3)c2nc3ccc4c(c3[nH]2)C(=O)c2ccccc2C4=O)cc1`, the GI50 with ACHN is 13.9 µM (inactive); in the assay with HOP-62, 36.8 µM (inactive); with COLO 205, 52.6 µM (inactive); in the assay on U-251 it was 33 µM (inactive); with SK-MEL-28, 33.1 µM (inactive); in the assay on SK-OV-3 it was 23.1 µM (inactive). Besides, the GI50 is 59.6 µM (inactive) in the assay with KM-20L2; 25.5 µM (inactive) in the assay with K562; 30.1 µM (inactive) with SN12C; 45.9 µM (inactive) in the assay on SNB-78; 6.75 µM (inactive) in the assay on NCI-H522; 31.8 µM (inactive) in the assay with EKVX. Moreover, the GI50 in the assay with DMS-273 was 23.6 µM (inactive); in the assay with HT-29, 40.6 µM (inactive); with XF498, 93.8 µM (inactive); in the assay on DMS-114 it was 28.2 µM (inactive); in the assay on UACC-62, 33.7 µM (inactive).
Turning to `Cc1ccc(Nc2nc(C)c(C(/C=C/c3ccc4c(c3)OCO4)=N/Nc3ccc([N+](=O)[O-])cc3[N+](=O)[O-])s2)c([N+](=O)[O-])c1`, the GI50 is 21.5 µM (inactive) in the assay on ACHN; 32.8 µM (inactive) with HOP-62; 56.5 µM (inactive) in the assay with COLO 205; 49.2 µM (inactive) in the assay on U-251; > 100 µM (inactive) in the assay on SK-MEL-28; 26.7 µM (inactive) in the assay with SK-OV-3. Moreover, the GI50 with KM-20L2 was 33.9 µM (inactive); in the assay on K562, 14.3 µM (inactive); in the assay with SN12C it was 28 µM (inactive); in the assay with SNB-78, 50.7 µM (inactive); with NCI-H522, 14.2 µM (inactive); in the assay with EKVX, 24.5 µM (inactive). For the same compound, the GI50 in the assay on DMS-273 was 25.9 µM (inactive); with HT-29 it was 50.6 µM (inactive); in the assay on XF498, 22.1 µM (inactive); in the assay on DMS-114, 13.3 µM (inactive); in the assay on UACC-62, 3.59 µM (inactive).
Regarding `CCc1cccc(CC)c1NC(=S)NC(=O)c1ccc(Br)cc1`, the GI50 in the assay on T47D was 21.9 µM (inactive); in the assay on MDA-MB-231 it was 29 µM (inactive); with ACHN it was 32.4 µM (inactive); with HOP-62 it was 32.4 µM (inactive); in the assay on COLO 205, 18.1 µM (inactive); in the assay on U-251 it was 40.1 µM (inactive). Also, the GI50 with SK-MEL-28 was 55.1 µM (inactive); in the assay on SK-OV-3, 64.9 µM (inactive); in the assay on PC-3, 24.3 µM (inactive); in the assay on KM-20L2, 47.5 µM (inactive); in the assay with K562, 40.7 µM (inactive); in the assay with SN12C it was 32.6 µM (inactive). Besides, the GI50 with SNB-78 was 64.7 µM (inactive); in the assay on NCI-H522, 17.6 µM (inactive); in the assay on EKVX, 23.6 µM (inactive); in the assay on DMS-273 it was 49 µM (inactive); in the assay with HT-29, 36.9 µM (inactive); in the assay with XF498 it was 26.3 µM (inactive). Further, the GI50 in the assay with DMS-114 was 28.2 µM (inactive); with UACC-62 it was 19.7 µM (inactive).
For `COc1cc2c(cc1O)C(C)Cc1cc3c(cc1N(C)CC2)OCO3` (stereo not drawn), the GI50 in the assay with ACHN is 6.85 µM (inactive); in the assay on HOP-62, 10.6 µM (inactive); in the assay on COLO 205 it was 24.2 µM (inactive); with U-251 it was 4.01 µM (inactive); with SK-MEL-28, 6.22 µM (inactive); in the assay with SK-OV-3 it was 3.32 µM (inactive). The GI50 in the assay on KM-20L2 was 12.4 µM (inactive); in the assay with K562 it was 2.8 µM (inactive); in the assay on SN12C it was 5.94 µM (inactive); in the assay on SNB-78, 5.12 µM (inactive); in the assay on NCI-H522 it was 2.18 µM (inactive); in the assay on EKVX, 4.26 µM (inactive). Further, the GI50 was 2.87 µM (inactive) in the assay with DMS-273; 12.9 µM (inactive) with HT-29; 7.19 µM (inactive) in the assay with XF498; 3.54 µM (inactive) in the assay on DMS-114; 3.5 µM (inactive) in the assay with UACC-62.
Take `COc1ccc(C(=O)OC2C=COC(C)C2OC(=O)c2ccc(OC)cc2)cc1` (stereo not drawn): the GI50 is 42.4 µM (inactive) in the assay with ACHN; > 83.6 µM (inactive) in the assay with HOP-62; 42.8 µM (inactive) in the assay with COLO 205; 36.8 µM (inactive) in the assay on U-251; 16.4 µM (inactive) with SK-MEL-28; > 100 µM (inactive) with SK-OV-3. The GI50 with KM-20L2 was 27.6 µM (inactive); with K562, 17 µM (inactive); with SN12C, 23.3 µM (inactive); with SNB-78 it was 22.5 µM (inactive); in the assay with NCI-H522, 16.5 µM (inactive); in the assay with EKVX, 36.9 µM (inactive). The GI50 with DMS-273 is 23.3 µM (inactive); with HT-29, 22.2 µM (inactive); in the assay on XF498, > 45 µM (inactive); in the assay on DMS-114, 17.5 µM (inactive); with UACC-62, 18.4 µM (inactive).
Consider `COc1ccc(/C=C/C(=O)C(C)(C)CN2CCCCC2)cc1`, for which the GI50 with ACHN was 24.4 µM (inactive); in the assay with HOP-62 it was 32.2 µM (inactive); in the assay on COLO 205, 15.6 µM (inactive); with U-251, 15.4 µM (inactive); in the assay on SK-MEL-28 it was 24.2 µM (inactive); in the assay on SK-OV-3 it was 21.5 µM (inactive). Besides, the GI50 was 20.2 µM (inactive) with KM-20L2; 24.2 µM (inactive) in the assay with K562; 18.3 µM (inactive) with SN12C; 17.1 µM (inactive) in the assay on SNB-78; 14 µM (inactive) in the assay with NCI-H522; 44.7 µM (inactive) with EKVX. Also, the GI50 is 18.2 µM (inactive) with DMS-273; 16.6 µM (inactive) with HT-29; 16.5 µM (inactive) in the assay on XF498; 15 µM (inactive) with DMS-114; 24.7 µM (inactive) in the assay on UACC-62.
Take `CC1OC(n2ccc3ccc([N+](=O)[O-])cc32)C(O)C(O)C1O` (stereo not drawn): the GI50 in the assay with ACHN, with HOP-62, in the assay with COLO 205, in the assay with U-251, with SK-MEL-28 and in the assay on SK-OV-3 was > 100 µM (inactive) each time. In addition, the GI50 with KM-20L2, in the assay on K562, in the assay with SN12C, with SNB-78, with NCI-H522 and with EKVX was > 100 µM (inactive) throughout. Also, the GI50 in the assay with DMS-273, in the assay with HT-29, in the assay with XF498, with DMS-114 and in the assay with UACC-62 was > 100 µM (inactive) throughout.
With `COC(=O)[C@@]1(O)CC(C)C=C1C=O` (stereo partly drawn), the GI50 in the assay on ACHN was > 100 µM (inactive); in the assay on HOP-62, > 100 µM (inactive); in the assay on COLO 205, > 100 µM (inactive); in the assay with U-251, 18.2 µM (inactive); in the assay on SK-MEL-28, > 100 µM (inactive); in the assay on SK-OV-3, > 100 µM (inactive). Also, the GI50 in the assay with KM-20L2 was > 100 µM (inactive); with K562, 55 µM (inactive); in the assay with SN12C it was > 100 µM (inactive); in the assay on SNB-78, 20.2 µM (inactive); in the assay with NCI-H522, 20 µM (inactive); with EKVX, > 100 µM (inactive). The GI50 was 19.2 µM (inactive) in the assay with DMS-273; 39.4 µM (inactive) with HT-29; > 100 µM (inactive) in the assay with XF498; 30.2 µM (inactive) with DMS-114; 73.6 µM (inactive) in the assay with UACC-62.
As to `N#CC(C#N)=C(N)/C(C#N)=C/c1ccc(O)c(O)c1`, the GI50 is 53.7 µM (inactive) with T47D; > 100 µM (inactive) with MDA-MB-231; > 85.7 µM (inactive) in the assay with ACHN; 15.5 µM (inactive) in the assay with HOP-62; > 65.2 µM (inactive) in the assay on COLO 205; > 89.5 µM (inactive) in the assay on U-251. In addition, the GI50 in the assay with SK-MEL-28 was > 100 µM (inactive); in the assay on SK-OV-3 it was > 100 µM (inactive); with PC-3, 37.7 µM (inactive); in the assay on KM-20L2 it was 25.1 µM (inactive); in the assay on K562, 48.8 µM (inactive); with SNB-78, > 100 µM (inactive). The GI50 with NCI-H522 is > 61.2 µM (inactive); in the assay with EKVX, > 70.3 µM (inactive); in the assay on DMS-273, 59.2 µM (inactive); with HT-29, > 92.9 µM (inactive); in the assay with XF498, > 100 µM (inactive); in the assay with DMS-114 it was 25.1 µM (inactive). For the same compound, the GI50 in the assay with UACC-62 is 49 µM (inactive).
